{"source": "patent US12310985B2", "about": "“Composition and method for treatment of diabetes” (SHENZHEN PROFOUND VIEW PHARMACEUTICAL TECHNOLOGY, priority 2020, dated 2025)", "type_in_all_cases": "in vivo", "key": {"[1]": {"system": "C57BL/6 male mice, high energy feed + STZ diabetic model", "assay": "Serum insulin content", "details": "end of experiment; Sample 10 mg/kg, Positive control 22.5 mg/kg", "procedure": "(§1) After each group was given a maintenance feed for 1 week, except for the negative control group, the other groups were replaced with the high energy feed from 3.1.7.1. After 3 weeks of feeding, each group was fasted for 24 h. Except for the negative control group, the other groups were intraperitoneally injected with 5 mg/mL STZ solution at a dose of 20 mL/kg bodyweight. All groups were fed for 4 days. Fasting blood glucose and glucose tolerance were measured on the 5th day, and the test was terminated the next day. […]\n(§2) On the 5th day after intraperitoneal injection of STZ, the mice in each group were fasted for about 5 hours with water provided. […] After 20 minutes, each group was intragastrically administered with 0.125 g/mL glucose solution at 20 mL/kg bodyweight, and the blood glucose level was measured at 0.5, 1, 1.5, 2 h after the administration of the glucose solution. […]\n(§3) At the end of the experiment, serum was collected for assaying serum insulin, triglycerides, and total cholesterol. The insulin resistance index was calculated."}, "[2]": {"system": "C57BL/6 male mice, high energy feed + STZ diabetic model", "assay": "Serum cholesterol (TC) and triglyceride (TG) content", "details": "serum at end of experiment; Sample 10 mg/kg, Positive control 22.5 mg/kg", "procedure": "as §1, §2, §3"}, "[3]": {"system": "C57BL/6 male mice, high energy feed + STZ diabetic model", "assay": "Pancreatic insulin content (ELISA)", "details": "end of experiment, Sample 10 mg/kg, Positive control 22.5 mg/kg", "procedure": "(§4) After each group was given a maintenance feed for 1 week, except for the negative control group, the other groups were replaced with the high energy feed from 3.1.7.1. After 3 weeks of feeding, each group was fasted for 24 h. Except for the negative control group, the other groups were intraperitoneally injected with 5 mg/mL STZ solution at a dose of 20 mL/kg bodyweight. All groups were fed for 4 days. Fasting blood glucose and glucose tolerance were measured on the 5th day, and the test was terminated the next day.\nFrom the feeding of the maintenance feed, the sample group was intraperitoneally injected with the test sample solution once per day at 20 mL/kg bodyweight, the negative control group and the model control group were intraperitoneally injected with sodium chloride solution, and the positive control group was intragastrically administered with pioglitazone hydrochloride solution at a dose of 20 mL/kg bodyweight for 34 days until the end of the test. […]\nas §2"}, "[4]": {"system": "C57BL/6 male mice, high energy feed + STZ diabetic model", "assay": "Fasting blood glucose index", "procedure": "as §4\n(§5) From the feeding of the maintenance feed, the sample group was intraperitoneally injected with the test sample solution once per day at 20 mL/kg bodyweight, the negative control group and the model control group were intraperitoneally injected with sodium chloride solution, and the positive control group was intragastrically administered with pioglitazone hydrochloride solution at a dose of 20 mL/kg bodyweight for 34 days until the end of the test. On the day of injection of STZ, each group was administered 4 h after STZ injection.\nOn the 5th day after intraperitoneal injection of STZ, the mice in each group were fasted for about 5 hours with water provided. After measuring the fasting blood glucose level (0 h), the sample group and positive control group were intraperitoneally injected with the corresponding drugs. The negative control group and the model control group were intraperitoneally injected with sodium chloride solution. After 20 minutes, each group was intragastrically administered with 0.125 g/mL glucose solution at 20 mL/kg bodyweight, and the blood glucose level was measured at 0.5, 1, 1.5, 2 h after the administration of the glucose solution. On the next day, the mice in each group were fasted for 5 h after the administration. The mice were anesthetized with 3% sodium pentobarbital solution in an amount of 10 mL/kg bodyweight, and sacrificed after collecting the eyeballs and bloods. The blood samples were centrifuged at 3000 r/min for 10 min, and the sera were collected for the detection of serum insulin, triglycerides, and total cholesterol. […]"}, "[5]": {"assay": "Body weight of mice during experiments (high energy feed + STZ diabetic model)", "details": "Sample 10 mg/kg i.p., Positive control 22.5 mg/kg intragastric, 1 time/day", "text": "3.2.1 C57BL/6 mice are more commonly used in diabetes tests. 90 C57BL/6 male mice (SPF level) with a body weight of 18.8-24.2 g at the beginning of the experiment were purchased from Guangdong Medical Laboratory Animal Center (Experimental Animal Production License No. SCXK (Yue) 2018-0002; Animal Certificate No. 44007200059759);\nas §4, §5\nWeighed at the beginning of the trial, at the end of the trial, and once a week during the trial."}, "[6]": {"system": "C57BL/6 male mice, high energy feed + STZ diabetic model", "assay": "Glucose tolerance index", "details": "Sample 10 mg/kg, Positive control 22.5 mg/kg", "procedure": "as §4, §5\nOn the 5th day after intraperitoneal injection of STZ, the mice in each group were fasted for about 5 hours with water provided. After measuring the fasting blood glucose level (0 h), the sample group and positive control group were intraperitoneally injected with the corresponding drugs. The negative control group and the model control group were intraperitoneally injected with sodium chloride solution. After 20 minutes, each group was intragastrically administered with 0.125 g/mL glucose solution at 20 mL/kg bodyweight, and the blood glucose level was measured at 0.5, 1, 1.5, 2 h after the administration of the glucose solution. On the next day, the mice in each group were fasted for 5 h after the administration. The mice were anesthetized with 3% sodium pentobarbital solution in an amount of 10 mL/kg bodyweight, and sacrificed after collecting the eyeballs and bloods. The blood samples were centrifuged at 3000 r/min for 10 min, and the sera were collected for the detection of serum insulin, triglycerides, and total cholesterol. At the same time, the pancreas of each animal was collected. Six animals in each group were fixed with 10% paraformaldehyde for HE staining and insulin immunohistochemical staining in pancreas. The remaining 6 animals were preserved at −80° C. for insulin content determination.\nCalculate the area under the blood glucose curve at 0, 0.5, 1, 1.5, 2 h after glucose administration. The formula is as follows:\nArea under the blood glucose curve: [(0 h blood glucose+0.5 h blood glucose)×0.5]/2+[(0.5 h blood glucose+1 h blood glucose)×0.5]/2+[(1 h blood glucose+1.5 h) Blood glucose level)×0.5]/2+[(1.5 h blood glucose level+2 h blood glucose value)×0.5]/2."}}, "note": "Counter-ions that a name gives are not always drawn."}
{"smiles": "CCc1ccc(CCOc2ccc(CC3SC(=O)NC3=O)cc2)nc1", "note": "(stereo not shown) [Positive control, Pioglitazone hydrochloride]", "values": [{"measurement": "serum insulin content", "setting": "[1]", "value": "28.2 ± 3.6", "unit": "mIU/mL"}, {"measurement": "TC", "setting": "[2]", "value": "4.76 ± 0.56", "unit": "mmol/L"}, {"measurement": "TG", "setting": "[2]", "value": "0.76 ± 0.14", "unit": "mmol/L"}, {"measurement": "pancreatic insulin content", "setting": "[3]", "value": "8.4 ± 3.0", "unit": "mIU/mL"}, {"measurement": "Fasting blood glucose index, Post experiment", "setting": "[4]; 5th day after STZ, fasting about 5 h, Sample 10 mg/kg i.p., Positive control 22.5 mg/kg intragastric, 1 time/day", "value": "13.8 ± 2.8", "unit": "mmol/L"}, {"measurement": "Decrease percentage of blood glucose", "setting": "[4]; (prior − post)/prior × 100%, Sample 10 mg/kg i.p., Positive control 22.5 mg/kg intragastric", "value": "−21.8 ± 39.0", "unit": "%"}, {"measurement": "Fasting blood glucose index, Prior to Experiment", "setting": "[4]; prior to experiment (baseline), fasting about 5 h", "value": "12.0 ± 2.6", "unit": "mmol/L"}, {"measurement": "Bodyweight", "setting": "[5]; d 2", "value": "22.2 ± 1.2", "unit": "g"}, {"measurement": "Bodyweight", "setting": "[5]; d 9", "value": "23.0 ± 1.3", "unit": "g"}, {"measurement": "Bodyweight", "setting": "[5]; d 16", "value": "24.2 ± 1.2", "unit": "g"}, {"measurement": "Bodyweight", "setting": "[5]; d 23", "value": "25.6 ± 1.5", "unit": "g"}, {"measurement": "Bodyweight", "setting": "[5]; d 29", "value": "26.2 ± 1.6", "unit": "g"}, {"measurement": "Bodyweight", "setting": "[5]; d 32", "value": "26.0 ± 1.4", "unit": "g"}, {"measurement": "Bodyweight", "setting": "[5]; d 35", "value": "25.8 ± 1.3", "unit": "g"}, {"measurement": "Glucose tolerance index, blood glucose", "setting": "[6]; 0 h, 5th day after STZ", "value": "13.8 ± 2.8", "unit": "mmol/L"}, {"measurement": "Glucose tolerance index, blood glucose", "setting": "[6]; 0.5 h after glucose administration", "value": "30.1 ± 5.4", "unit": "mmol/L"}, {"measurement": "Glucose tolerance index, blood glucose", "setting": "[6]; 1 h after glucose administration", "value": "26.9 ± 7.0", "unit": "mmol/L"}, {"measurement": "Glucose tolerance index, blood glucose", "setting": "[6]; 1.5 h after glucose administration", "value": "20.7 ± 6.2", "unit": "mmol/L"}, {"measurement": "Glucose tolerance index, blood glucose", "setting": "[6]; 2 h after glucose administration", "value": "17.9 ± 6.3", "unit": "mmol/L"}]}
